Non-standard residues stand in square brackets, D forms with d. Residues, ends and D or L forms follow the SMILES beside them. *: point of attachment. DOTA = O=C(O)CN1CCN(CC(=O)O)CCN(CC(=O)*)CCN(CC(=O)O)CC1; Bpa = N[C@@H](Cc1ccc(C(=O)c2ccccc2)cc1)C(=O)O; d2Nal = N[C@H](Cc1ccc2ccccc2c1)C(=O)O; azaGly = NNC(=O)O; Sar = CNCC(=O)O
The molecules below were run on LHRH binding sites on human ovarian cancer cells (EFO-27). Conditions: not given.
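Further: Cell-associated radioactivity on confluent EFO-27 monolayers in 96-well plates, measured by microplate scintillation counting.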

**Q.** Which EC50 does the source give for `CN(CC(=O)N[C@@H](Cc1c[nH]cn1)C(=O)N[C@@H](Cc1c[nH]c2ccccc12)C(=O)N[C@@H](CO)C(=O)N[C@@H](Cc1c[nH]cn1)C(=O)N[C@H](CCCNC(=N)N)C(=O)N[C@@H](Cc1c[nH]c2ccccc12)C(=O)N[C@@H](Cc1ccc(Oc2ccc(O)cc2)cc1)C(=O)N1CCC[C@H]1C(=O)NNC(N)=O)C(=O)CN1CCN(CC(=O)O)CCN(CC(=O)O)CCN(CC(=O)O)CC1` [BRU-2823] here?
**A.** 1610 nM

**Q.** `CN(CC(=O)N[C@@H](Cc1c[nH]cn1)C(=O)N[C@@H](Cc1c[nH]c2ccccc12)C(=O)N[C@@H](CO)C(=O)N[C@@H](Cc1c[nH]cn1)C(=O)N[C@H](CCCNC(=N)N)C(=O)N[C@@H](Cc1c[nH]c2ccccc12)C(=O)N[C@@H](Cc1cscn1)C(=O)N1CCC[C@H]1C(=O)NNC(N)=O)C(=O)CN1CCN(CC(=O)O)CCN(CC(=O)O)CCN(CC(=O)O)CC1` [BRU-2742] was tested. Which EC50 did it give?
**A.** 10000 nM

**Q.** With `N=C(N)NCCC[C@H](NC(=O)[C@@H](Cc1ccc2ccccc2c1)NC(=O)CN1CCN(CC(=O)O)CCN(CC(=O)O)CCN(CC(=O)O)CC1)C(=O)N[C@@H](Cc1c[nH]c2ccccc12)C(=O)N[C@@H](CO)C(=O)N[C@@H](Cc1c[nH]cn1)C(=O)N[C@H](CCCNC(=N)N)C(=O)N[C@@H](Cc1c[nH]c2ccccc12)C(=O)N[C@@H](Cc1ccc(C(=O)c2ccccc2)cc1)C(=O)N1CCC[C@H]1C(=O)NNC(=O)NCCCCN` [compound 3019] as the molecule, how does the EC50 read?
**A.** 900 nM

**Q.** How did the EC50 turn out when `N=C(N)NCCC[C@H](NC(=O)[C@H](Cc1ccc(C(=O)O)cc1)NC(=O)CN1CCN(CC(=O)O)CCN(CC(=O)O)CCN(CC(=O)O)CC1)C(=O)N[C@@H](Cc1c[nH]c2ccccc12)C(=O)N[C@@H](CO)C(=O)N[C@@H](Cc1c[nH]cn1)C(=O)N[C@H](CCCNC(=N)N)C(=O)N[C@@H](Cc1c[nH]c2ccccc12)C(=O)N[C@@H](Cc1ccc(C(=O)c2ccccc2)cc1)C(=O)N1CCC[C@H]1C(=O)NNC(N)=O` [BRU-3092] was run?
**A.** 2000 nM

**Q.** With `CN(CC(=O)N[C@@H](Cc1c[nH]cn1)C(=O)N[C@@H](Cc1c[nH]c2ccccc12)C(=O)N[C@@H](CO)C(=O)N[C@@H](Cc1c[nH]cn1)C(=O)N[C@H](CCCNC(N)=O)C(=O)N[C@@H](Cc1c[nH]c2ccccc12)C(=O)N[C@@H](Cc1ccc(C(=O)c2ccccc2)cc1)C(=O)N1CCC[C@H]1C(=O)NNC(N)=O)C(=O)CN1CCN(CC(=O)O)CCN(CC(=O)O)CCN(CC(=O)O)CC1` [BRU-2729] as the molecule, how does the EC50 read?
**A.** 14200 nM

Same assay, conditions: EFO-27 cells, competition with [125I-Tyr8]BRU-2477, 90 min

**Q.** With `N=C(N)NCCC[C@H](NC(=O)[C@@H](Cc1ccc2ccccc2c1)NC(=O)CN1CCN(CC(=O)O)CCN(CC(=O)O)CCN(CC(=O)O)CC1)C(=O)N[C@@H](Cc1c[nH]c2ccccc12)C(=O)N[C@@H](CO)C(=O)N[C@@H](Cc1c[nH]cn1)C(=O)N[C@H](CCCNC(=N)N)C(=O)N[C@@H](Cc1c[nH]c2ccccc12)C(=O)N[C@@H](Cc1ccc(C(=O)c2ccccc2)cc1)C(=O)N1CCC[C@H]1C(=O)NCC(=O)N[C@@H](Cc1ccccc1)C(N)=O` [compound 2980] ({DOTA}-[d2Nal]RWSH[dR]W[Bpa]PGF-NH2) as the molecule, how does the EC50 read?
**A.** 970 nM

**Q.** `C[C@@H](NC(=O)[C@H](Cc1c[nH]cn1)NC(=O)[C@H](CO)NC(=O)[C@H](Cc1c[nH]c2ccccc12)NC(=O)[C@H](Cc1c[nH]cn1)NC(=O)CN(C)C(=O)CN1CCN(CC(=O)O)CCN(CC(=O)O)CCN(CC(=O)O)CC1)C(=O)N[C@@H](Cc1c[nH]c2ccccc12)C(=O)N[C@@H](Cc1ccc(C(=O)c2ccccc2)cc1)C(=O)N1CCC[C@H]1C(=O)NNC(N)=O` [compound 2672] ({DOTA}-[Sar]HWSH[dA]W[Bpa]P[azaGly]-NH2) was tested. Which EC50 did it give?
**A.** 14000 nM

**Q.** With `N=C(N)NCCC[C@H](NC(=O)[C@@H](Cc1ccc2ccccc2c1)NC(=O)CN1CCN(CC(=O)O)CCN(CC(=O)O)CCN(CC(=O)O)CC1)C(=O)N[C@@H](Cc1c[nH]c2ccccc12)C(=O)N[C@@H](CO)C(=O)N[C@@H](Cc1c[nH]cn1)C(=O)N[C@H](CCCNC(=N)N)C(=O)N[C@@H](Cc1c[nH]c2ccccc12)C(=O)N[C@@H](Cc1ccc(C(=O)c2ccccc2)cc1)C(=O)N1CCC[C@H]1C(=O)NCC(N)=O` [compound 3005] as the molecule, how does the EC50 read?
**A.** 660 nM
